One experiment relates to TNFα. In words: IRAK4 Monocyte TNFα Cell Based Assay. The note with it: cryopreserved human monocytes, 50 pg/ml LPS, compound 1 hour pre-treatment, 4 hours stimulation, TNFα by TR-FRET. How it is done: IRAK4 Monocyte TNFα Cell Based Assay Procedure:
The cell suspension was then plated at a density of 5,000 cells/well onto black 384 well Greiner clear bottom plates. Plates were pre-spotted with test compounds and serially diluted in DMSO where 40 nL/well were delivered using the Echo 550 acoustic liquid dispenser (Labcyte®) for a final DMSO concentration of 0.1%. Plated cells were treated with compound for 1 hour at 37° C. Cells were then stimulated with 50 pg/ml of LPS (Sigma) excluding outside columns of plate used for unstimulated cell control wells. Cells were incubated for an additional 4 hours at 37° C. Cells were then spun out of the media and 5 μl of sample were taken and analyzed for total TNFα content using the TR-FRET Human TNFα detection system (CisBio). This system utilizes two labeled antibodies (cryptate and XL665) that bind to two different epitopes of the TNFα molecule and produce FRET signal proportional to the concentration of TNFα in the sample. Detection antibodies are mixed 50:50 and 5 μL were dispensed into each well. Plates were covered with clear seals and incubated at room temp overnight. The following morning plates were read using an Envision 2103 Multilabeled reader (PerkinElmer) with excitation/emission/FRET emission at 340 nm/615 nm/665 nm, respectively. Fluorescence intensities at 615 nm and 665 nm emission wavelengths were expressed as a ratio (665 nm/615 nm). Percent of control was calculated as follows: % Control=100×(RatioSample−Ratio0% Stimulation)/(Ratio100% Stimulation−Ratio0% Stimulation)
where unstimulated cells (0% stimulation) were the negative control and stimulated cells (100% stimulation) were used as the positive control.

The next experiment concerns the target IRAK4 (Homo sapiens (Human), UniProt Q9NWZ3). In words: IRAK4 Biochemical Assay (TR-FRET/HTRF). The following applies: IRAK4 enzyme 0.75 nM, 500 μM ATP, 2 μM STK1 peptide, 120 min. The procedure: IRAK4 Biochemical Assay Procedure:
IRAK4 enzyme (Carna Biosciences, Chuo-ku, Kobe, Japan) activity was measured by detecting phosphorylated peptide substrate formation using an antibody against the phosphorylated peptide substrate. This is a time-resolved fluorescence resonance energy transfer (TR-FRET) immunoassay, based on the STK1 KinEASE Assay (Cisbio, Bedford, Mass.). The assay was designed as a simple two-step, endpoint assay (a 5 μl enzyme reaction followed by 5 μl stop and detect Solution) performed in ProxiPlate-384 Plus plates (Perkin Elmer, Waltham, Mass.). Staurosporine, a non-selective kinase inhibitor was used as a positive control. Compounds diluted in DMSO were spotted into 384 well plates using a Labcyte® Echo 550 Liquid Handling System prior to addition of IRAK4 enzyme and peptide substrate. Reaction solutions were delivered using a Multi-Flo (Bio-Tek Instruments). The enzyme and peptide solution was incubated with compound for 15 minutes at room temp before the reaction was initiated by the addition of ATP. The standard 5 μl reaction mixture contained 500 μM ATP, 2 μM peptide (STK1 Peptide), 0.75 nM of IRAK4 in reaction buffer (50 mM HEPES, pH 7.0, 0.02% NaN3, 0.01% BSA, 0.1 mM Orthovanadate, 5 mM MgCl2, 0.025% NP-40, 1 mM DTT). After 120 min of incubation at room temperature, 5 μl of Stop and Detect Solution (1:100 Cryptate labeled anti-phosphorylated peptide antibody solution and 125 nM Tracer in a 50 mM HEPES pH 7.0 detection buffer containing sufficient EDTA) was added. The plate was then further incubated for 60 minutes at room temperature and read on Envision 2103 Multilabeled reader (PerkinElmer) with excitation/emission/FRET emission at 340 nm/615 nm/665 nm, respectively. Fluorescence intensities at 615 nm and 665 nm emission wavelengths were expressed as a ratio (665 nm/615 nm). Percentage of inhibition was calculated as below: % Inhibition=100×(RatioSample−Ratio0% Inhibition)/(Ratio100% Inhibition−Ratio0% Inhibition)
The 0% inhibition value comes from control wells lacking inhibitor. The 100% inhibition value comes from control wells containing a saturating amount of known inhibitor staurosporine.

EC50 and IC50 data for 16 compounds are collected here from US11572362B2, “Pyrrolo[1,2-b]pyridazine derivatives” (Gilead Sciences, Inc., priority 2018, dated 2023).

The structures appear in SMILES notation. A value given as a limit tells only on which side of the number the result lay.

IRAK4, sequence (Q9NWZ3 whole entry): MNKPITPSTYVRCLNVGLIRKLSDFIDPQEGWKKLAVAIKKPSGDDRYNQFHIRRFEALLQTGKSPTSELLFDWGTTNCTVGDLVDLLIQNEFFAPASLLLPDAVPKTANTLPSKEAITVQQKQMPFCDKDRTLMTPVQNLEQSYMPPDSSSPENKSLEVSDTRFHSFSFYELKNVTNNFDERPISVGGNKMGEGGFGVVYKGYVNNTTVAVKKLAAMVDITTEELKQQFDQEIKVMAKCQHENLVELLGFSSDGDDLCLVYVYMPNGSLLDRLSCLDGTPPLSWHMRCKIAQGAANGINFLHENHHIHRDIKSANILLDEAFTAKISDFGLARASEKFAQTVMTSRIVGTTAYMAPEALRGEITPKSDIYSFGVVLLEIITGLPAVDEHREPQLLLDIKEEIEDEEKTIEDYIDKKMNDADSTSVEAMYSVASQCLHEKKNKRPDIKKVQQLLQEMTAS

What is called EC50 is the concentration that produces a half-maximal response. Broadly, the IC50 is the concentration needed to halve the response being measured. Read a low IC50 as inhibition by little substance. As to `Cn1cc([C@H]2CC[C@H](Nc3cc(-c4ccc5cc(C#N)cnn45)ncc3C(=O)NC[C@@H](F)C(C)(C)O)CC2)nn1` [Compound 19, 6-(3-cyanopyrrolo[1,2-b]pyridazin-7-yl)-N-((R)-2-fluoro-3-hydroxy-3-methylbutyl)-4-(((1r,4R)-4-(1-methyl-1H-1,2,3-triazol-4-yl)cyclohexyl)amino)nicotinamide], the EC50 with TNFα (Monocyte) turned out to be 26 nM. For the same compound, on IRAK4, the IC50 is less than 1 nM.
On to `CC(C)(O)[C@H](F)CNC(=O)c1cnc(-c2ccc3cc(C#N)cnn23)cc1N[C@H]1CC[C@H](n2cc(F)cn2)CC1` [Compound 25, 6-(3-cyanopyrrolo[1,2-b]pyridazin-7-yl)-4-(((1r,4R)-4-(4-fluoro-1H-pyrazol-1-yl)cyclohexyl)amino)-N-((R)-2-fluoro-3-hydroxy-3-methylbutyl)nicotinamide], for which the EC50 in the experiment on TNFα (Monocyte) was 29 nM. Also, it took 2 nM to reach half-maximal inhibition against IRAK4 (IC50).
The matching figures for `CC(C)(O)[C@H](F)CNC(=O)c1cnc(-c2ccc3cc(C#N)cnn23)cc1N[C@H]1CC[C@H](n2cnnc2C(F)F)CC1` [Compound 37, 6-(3-cyanopyrrolo[1,2-b]pyridazin-7-yl)-4-(((1r,4R)-4-(3-(difluoromethyl)-4H-1,2,4-triazol-4-yl)cyclohexyl)amino)-N-((R)-2-fluoro-3-hydroxy-3-methylbutyl)nicotinamide]: 40 nM and 1 nM.
For `CC(C)(O)[C@H](F)CNC(=O)c1cnc(-c2ccc3cc(C#N)cnn23)cc1NC12CCC(c3nnc(C(F)F)o3)(CC1)OC2` [Compound 65, (R)-6-(3-cyanopyrrolo[1,2-b]pyridazin-7-yl)-4-((1-(5-(difluoromethyl)-1,3,4-oxadiazol-2-yl)-2-oxabicyclo[2.2.2]octan-4-yl)amino)-N-(2-fluoro-3-hydroxy-3-methylbutyl)nicotinamide], the EC50 in the experiment with TNFα (Monocyte) worked out at 23 nM. Also, the IC50 against IRAK4 turned out to be 1 nM.
With `CC(C)(O)[C@H](F)CNC(=O)c1cnc(-c2ccc3cc(C#N)cnn23)cc1N[C@H]1CC[C@H](n2cc(CC#N)cn2)CC1` [Compound 27, 4-(((1r,4R)-4-(4-(cyanomethyl)-1H-pyrazol-1-yl)cyclohexyl)amino)-6-(3-cyanopyrrolo[1,2-b]pyridazin-7-yl)-N-((R)-2-fluoro-3-hydroxy-3-methylbutyl)nicotinamide], in the experiment with TNFα (Monocyte), the EC50 was 58 nM. This compound also registered an IC50 against IRAK4 of less than 1 nM.
On the same counts, the results for `CC(C)(O)[C@H](F)CNC(=O)c1cnc(-c2ccc3cc(C#N)cnn23)cc1N[C@H]1CC[C@H](c2cnn(C(F)F)c2)CC1` [Compound 3, 6-(3-cyanopyrrolo[1,2-b]pyridazin-7-yl)-4-(((1r,4R)-4-(1-(difluoromethyl)-1H-pyrazol-4-yl)cyclohexyl)amino)-N-((R)-2-fluoro-3-hydroxy-3-methylbutyl)nicotinamide] are 9 nM and less than 1 nM.
On the same counts, the results for `CC(C)(O)[C@H](F)CNC(=O)c1cnc(-c2ccc3cc(C#N)cnn23)cc1N[C@H]1CC[C@H](n2cnc(C(F)F)n2)CC1` [Compound 36, 6-(3-cyanopyrrolo[1,2-b]pyridazin-7-yl)-4-(((1r,4R)-4-(3-(difluoromethyl)-1H-1,2,4-triazol-1-yl)cyclohexyl)amino)-N-((R)-2-fluoro-3-hydroxy-3-methylbutyl)nicotinamide] are 14 nM and less than 1 nM.
Take `CC(C)(O)[C@H](F)CNC(=O)c1cnc(-c2ccc3cc(C#N)cnn23)cc1N[C@H]1CC[C@H](c2nnc(C(F)F)o2)OC1` [Compound 74, 6-(3-cyanopyrrolo[1,2-b]pyridazin-7-yl)-4-(((3S,6R)-6-(5-(difluoromethyl)-1,3,4-oxadiazol-2-yl)tetrahydro-2H-pyran-3-yl)amino)-N-((R)-2-fluoro-3-hydroxy-3-methylbutyl)nicotinamide]: in the experiment on TNFα (Monocyte), the EC50 stood at 71.4 nM. The IC50 against IRAK4 was 0.868 nM.
On the same counts, the results for `CC(C)(O)[C@H](F)CNC(=O)c1cnc(-c2ccc3cc(C#N)cnn23)cc1NC12CCC(c3nncs3)(CC1)CC2` [Compound 61, (R)-4-((4-(1,3,4-thiadiazol-2-yl)bicyclo[2.2.2]octan-1-yl)amino)-6-(3-cyanopyrrolo[1,2-b]pyridazin-7-yl)-N-(2-fluoro-3-hydroxy-3-methylbutyl)nicotinamide] are 4 nM and less than 1 nM.
The matching figures for `CC(C)(O)[C@H](F)CNC(=O)c1cnc(-c2ccc3cc(C#N)cnn23)cc1N[C@H]1CC[C@H](C2CCOCC2)CC1` [Compound 67, 6-(3-cyanopyrrolo[1,2-b]pyridazin-7-yl)-N-((R)-2-fluoro-3-hydroxy-3-methylbutyl)-4-(((1r,4R)-4-(tetrahydro-2H-pyran-4-yl)cyclohexyl)amino)nicotinamide]: 41 nM and 1 nM.
On the same counts, the results for `Cc1ncoc1[C@@H]1CCC[C@@H](Nc2cc(-c3ccc4cc(C#N)cnn34)ncc2C(=O)NC[C@@H](F)C(C)(C)O)C1` [Compound 48, 6-(3-cyanopyrrolo[1,2-b]pyridazin-7-yl)-N-((R)-2-fluoro-3-hydroxy-3-methylbutyl)-4-(((1R,3R)-3-(4-methyloxazol-5-yl)cyclohexyl)amino)nicotinamide] are 1050 nM and 10 nM.
As for `Cc1c(C2CCC(Nc3cc(-c4ccc5cc(C#N)cnn45)ncc3C(=O)NC[C@@H](F)C(C)(C)O)CC2)cnn1C(F)F` (stereo partly drawn) [Compound 10, (R)-6-(3-cyanopyrrolo[1,2-b]pyridazin-7-yl)-4-((4-(1-(difluoromethyl)-5-methyl-1H-pyrazol-4-yl)cyclohexyl)amino)-N-(2-fluoro-3-hydroxy-3-methylbutyl)nicotinamide], the EC50 in the experiment on TNFα (Monocyte) turned out to be 55 nM. The compound further came in with an IC50 at IRAK4 of 8 nM.
The matching figures for `Cc1ncc([C@H]2CC[C@H](Nc3cc(-c4ccc5cc(C#N)cnn45)ncc3C(=O)NC[C@@H](F)C(C)(C)O)CC2)s1` [Compound 50, 6-(3-cyanopyrrolo[1,2-b]pyridazin-7-yl)-N-((R)-2-fluoro-3-hydroxy-3-methylbutyl)-4-(((1r,4R)-4-(2-methylthiazol-5-yl)cyclohexyl)amino)nicotinamide]: 52 nM and 1 nM.
On the same counts, the results for `CC(C)(O)[C@H](F)CNC(=O)c1cnc(-c2ccc3cc(C#N)cnn23)cc1N[C@H]1CC[C@H](n2ccnn2)CC1` [Compound 31, 4-(((1r,4R)-4-(1H-1,2,3-triazol-1-yl)cyclohexyl)amino)-6-(3-cyanopyrrolo[1,2-b]pyridazin-7-yl)-N-((R)-2-fluoro-3-hydroxy-3-methylbutyl)nicotinamide] are 40 nM and 1 nM.
As to `CC(C)(O)[C@H](F)CNC(=O)c1cnc(-c2ccc3cc(C#N)cnn23)cc1N[C@H]1CC[C@H](c2nnn(C(F)F)n2)CC1` [Compound 72, 6-(3-cyanopyrrolo[1,2-b]pyridazin-7-yl)-4-(((1r,4R)-4-(2-(difluoromethyl)-2H-tetrazol-5-yl)cyclohexyl)amino)-N-((R)-2-fluoro-3-hydroxy-3-methylbutyl)nicotinamide], the EC50 in the experiment with TNFα came to 31.3 nM. Besides, the IC50 against IRAK4 came to 0.639 nM.
`CC(C)(O)[C@H](F)CNC(=O)c1cnc(-c2ccc3cc(C#N)cnn23)cc1N[C@H]1CC[C@H](n2cc(C(N)=O)nn2)CC1` [Compound 34, 4-(((1r,4R)-4-(4-carbamoyl-1H-1,2,3-triazol-1-yl)cyclohexyl)amino)-6-(3-cyanopyrrolo[1,2-b]pyridazin-7-yl)-N-((R)-2-fluoro-3-hydroxy-3-methylbutyl)nicotinamide]: in the experiment on TNFα (Monocyte), the EC50 came to 43 nM. The compound also showed an IC50 against IRAK4 of less than 1 nM.
